In patent publication US9469645B2, “Compounds and compositions for the treatment of parasitic diseases” (Novartis AG, priority 2009, dated 2016):
Read-outs that look alike come from different tables or passages of the source.

How the values were obtained:
[1] = test system: W2 strain; assay: parasite proliferation assay in infected red blood cells (SYBR Green I), W2 strain; type: cell-based, Plasmodium falciparum
Text: Compounds of the invention can be assayed to measure their capacity to inhibit proliferation of parasitemia in infected red blood cells. The proliferation is quantified by the addition of SYBR Green I (INVITROGEN)® dye which has a high affinity for double stranded DNA.

[2] = test system: 3D7 P. falciparum strain; assay: parasite proliferation assay in infected red blood cells (SYBR Green I); type: cell-based, Plasmodium falciparum; details: 3D7 strain, read-out: EC50 3D7 strain
In short: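 P. falciparum 3D7 grown in O+ human erythrocytes to 3–8% parasitemia and exposed to compounds. Proliferation read as the increase in parasite DNA. Detection used SYBR Green I in saponin/triton-X/EDTA lysis buffer, with overnight lysis at room temperature.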

[3] = Plasmodium falciparum, Erythrocyte
[4] = Plasmodium falciparum, 3D7, Erythrocyte

Compound	EC50 [1, 3] [µM]	EC50 [2, 4] [µM]	EC50 ([1]; W2 strain) [µM]	EC50 [2] [µM]
COc1ccc(Nc2c(-c3ccc(F)cc3)nc3n2CC(=O)NC3(C)C)cn1 [Compound 545]	5.62	3.38		
O=C([C@@H]1CCN1)N1CCn2c(nc(-c3ccc(F)cc3)c2Nc2ccc(F)c(F)c2)C1 [Compound 441]	0.081	0.06		
CC1(C)c2nc(-c3ccc(F)cc3)c(Nc3ccc(F)c(C#N)c3)n2CCN1C(=O)CN [Compound 522]	0.002	0.0017		
CC(C)[C@H]1c2nc(-c3ccc(F)cc3)c(Nc3ccc(Cl)c(F)c3)n2CCN1C(=O)CN [Compound 595]	0.485	0.34		
Cc1ccnc(Nc2c(-c3ccc(F)cc3)nc3n2CC(=O)NC3(C)C)c1 [Compound 547]	4.66	1.82		
Cc1ccc(Nc2c(-c3ccc(F)cc3)nc3n2CCN(C(=O)CN)C3(C)C)cc1F [Compound 533]	0.022	0.03		
C[C@@H]1c2nc(-c3ccc(F)cc3)c(Nc3ccc(Cl)c(F)c3)n2CCN1C(=O)CN [Compound 596]	0.029	0.03		
Cc1ccc(Nc2c(-c3cccc(F)c3)nc3n2C(C)(C)CN(C(=O)CN)C3)cc1 [Compound 594]	0.032	0.02		
CC(C)[C@H]1NC(=O)Cn2c1nc(-c1ccc(F)cc1)c2Nc1ccc(Cl)c(F)c1 [Compound 550]	3.6	2.56		
Cc1ccc(Nc2c(-c3ccc(F)cc3)nc3n2CCNC3(C)C)cc1 [Compound 415]	0.013	0.01		
Cc1ccc(Nc2c(-c3cc(F)ccc3F)nc3n2CCN(C(=O)C(C)(C)N)C3)cc1 [Compound 408]	0.908	0.93		
Cc1ccc(Nc2c(-c3ccc(F)cc3)nc3n2CCN(C(=O)[C@@H](N)Cc2ccc(F)c(F)c2)C3)cc1 [Compound 485]	0.023	0.03		
Cc1ccc(Nc2c(-c3ccncc3)nc3n2CCN(C(=O)C(C)(C)N)C3)cc1 [Compound 398]	2.69	2.73		
N[C@H](C(=O)N1CCn2c(nc(-c3ccc(F)cc3)c2Nc2ccc(Cl)c(F)c2)C1)C1CC1 [Compound 487]	0.031	0.04		
CC1(C)c2nc(-c3ccc(F)cc3)c(Nc3cccc(NS(C)(=O)=O)c3)n2CCN1C(=O)CN [Compound 552]	4.48	2.52		
CC(C)[C@@H](O)C(=O)N1CCn2c(nc(-c3ccc(F)cc3)c2Nc2ccc(Cl)cc2)C1 [Compound 456]	0.015	0.02		
Fc1ccc(-c2nc3n(c2Nc2ccc(Cl)c(Cl)c2)CCNC3)cc1 [Compound 411]	0.106	0.14		
CC[C@H](C)[C@H](N)C(=O)N1CCn2c(nc(-c3ccc(F)cc3)c2Nc2ccc(F)cc2)C1 [Compound 469]	0.016	0.02		
CC1(C)NC(=O)Cn2c1nc(-c1ccc(F)cc1)c2Nc1cccc(F)c1 [Compound 501]	0.305	0.4		
CN1CC(C)(C)n2c(nc(-c3ccc(F)cc3)c2Nc2ccc(F)cc2)C1(C)C [Compound 536]	5.93	6.4		
CNC(=O)c1cccc(Nc2c(-c3ccc(F)cc3)nc3n2CCN(C(=O)CN)C3(C)C)c1 [Compound 553]	4.66	2.37		

Compound	EC50 [1, 3] [µM]	EC50 [2, 4] [µM]	EC50 ([1]; W2 strain) [µM]	EC50 [2] [µM]
CC1(C)NC(=O)Cn2c1nc(-c1ccc(F)cc1)c2Nc1ccc(F)c(Cl)c1 [Compound 513]	0.195	0.17		
CC(C)C[C@H](N)C(=O)N1CCn2c(nc(-c3ccc(F)cc3)c2Nc2ccc(Cl)cc2)C1 [Compound 453]	0.021	0.02		
Cc1ccc(Nc2c(-c3ccc(F)cc3)nc3n2CCN(C(=O)C(C)(N)CO)C3)cc1 (stereo not shown) [Compound 505]	0.116	0.14		
CC1(C)NCCn2c1nc(-c1ccc(F)cc1)c2Nc1ccc(Cl)cc1 [Compound 416]	0.016	0.01		
Cc1ccc(Nc2c(-c3ccc(Cl)c(F)c3)nc3n2CCNC3)cc1 [Compound 498]	6.74	6.34		
Cc1ccc(Nc2c(-c3ccc(F)cc3)nc3n2CC(=O)NC3(C)C)cc1 [Compound 507]	0.136	0.14		
CC1(C)NCCn2c1nc(-c1ccc(F)cc1)c2Nc1cccc(C(F)(F)F)c1 [Compound 515]	0.034	0.04		
Cc1ccc(Nc2c(-c3ccc(F)cc3)nc3n2CCN(C(=O)[C@@H](N)c2ccc(F)cc2)C3)cc1 [Compound 482]	0.009	0.02		
CC(C)[C@@H](O)C(=O)N1CCn2c(nc(-c3ccc(F)cc3)c2Nc2ccc(F)cc2)C1 [Compound 471]	0.03	0.03		
tert-butyl 1-(2-(4-fluorophenyl)-5,6-dihydroimidazo[1,2-a]pyrazin-7(8H)-yl)-2-methyl-1-oxopropan-2-ylcarbamate [Compound 530]			6.42	1.23
Cc1ccc(Nc2c(-c3ccc(F)cc3)nc3n2CCN(C(=O)[C@@H](C)NCc2ccccc2)C3)cc1 [Compound 402]	0.122	0.12		
CN1CCN(Cc2cccc(Nc3c(-c4ccc(F)cc4)nc4n3CC(=O)NC4(C)C)c2)CC1 [Compound 569]	7.92	9.27		
COc1ccc(CN2Cc3nc(-c4cccc(F)c4)c(Nc4ccc(C)cc4)n3C(C)(C)C2)cc1 [Compound 582]	5.92	5.56		
CC1(C)NCCn2c1nc(-c1ccc(F)cc1)c2Nc1ccc(Cl)c(F)c1 [Compound 420]	0.028	0.02		
Cc1ccc(Nc2c(-c3ccc(Cl)c(F)c3)nc3n2CCN(C(=O)CN)C3)cc1 [Compound 520]	0.158	0.16		
CC1(C)c2nc(-c3ccc(F)cc3)c(Nc3ccc(C#N)cc3)n2CCN1C(=O)CN [Compound 425]	0.012	0.01		
CC(C)(N)C(=O)N1CCn2c(nc(-c3ccc(F)cc3)c2Nc2ccc(Cl)c(Cl)c2)C1 [Compound 410]	0.037	0.06		
CC1(C)NC(=O)Cn2c1nc(-c1ccc(F)cc1)c2Nc1ccc(C#N)c(Cl)c1 [Compound 548]	5.55	2.63		
Cc1ccc(Nc2c(-c3cc(F)ccc3F)nc3n2CCN(C(=O)CN)C3)cc1 [Compound 418]	0.146	0.09		
CC(C)[C@H](N)C(=O)N1CCn2c(nc(-c3ccc(F)cc3)c2Nc2ccc(F)cc2)C1 [Compound 464]	0.024	0.03		
CC(C)[C@@H](O)C(=O)N1CCn2c(nc(-c3ccc(F)cc3)c2Nc2ccc(F)c(F)c2)C1 [Compound 430]	0.019	0.01		

Compound	EC50 [1, 3] [µM]	EC50 [2, 4] [µM]	EC50 ([1]; W2 strain) [µM]	EC50 [2] [µM]
CC(C)C[C@H](N)C(=O)N1CCn2c(nc(-c3ccc(F)cc3)c2Nc2ccc(F)cc2)C1 [Compound 468]	0.02	0.03		
Cc1ccc(Nc2c(-c3ccc(Cl)c(F)c3)nc3n2CCN(C(=O)C(C)(C)N)C3)cc1 [Compound 521]	3.03	5		
CC(C)(C)[C@H](N)C(=O)N1CCn2c(nc(-c3ccc(F)cc3)c2Nc2ccc(F)cc2)C1 [Compound 478]	0.039	0.06		
N[C@H](C(=O)N1CCn2c(nc(-c3ccc(F)cc3)c2Nc2ccc(F)cc2)C1)c1ccc(F)cc1 [Compound 472]	0.037	0.05		
CC1(C)Cn2c(nc(-c3ccc(F)cc3)c2Nc2ccc(F)cc2)CN1 [Compound 579]	0.146	0.18		
CC(C)[C@H](O)C(=O)N1CCn2c(nc(-c3ccc(F)cc3)c2Nc2ccc(F)c(F)c2)C1 [Compound 440]	0.028	0.02		
Cc1cc(Nc2c(-c3ccc(F)cc3)nc3n2CCN(C(=O)CN)C3(C)C)ccc1Cl [Compound 496]	0.008	0.03		
Cc1ccc(C[C@H](N)C(=O)N2CCn3c(nc(-c4ccc(F)cc4)c3Nc3ccc(C)cc3)C2)cc1 [Compound 484]	0.023	0.04		
Cc1ccc(Nc2c(-c3ccc(F)cc3)nc3n2CCN(C(=O)CN)C3(C)C)cc1 [Compound 409]	0.006	0.01		
Cc1ccc(Nc2c(-c3ccc(F)cc3)nc3n2CCN(C(=O)CN)C3(C)C)cc1Cl [Compound 532]	0.009	0.02		
N[C@@H](CC1CCC1)C(=O)N1CCn2c(nc(-c3ccc(F)cc3)c2Nc2ccc(F)cc2)C1 [Compound 467]	0.016	0.02		
Cc1ccc(Nc2c(-c3ccc(F)cc3)nc3n2CCN(C(=O)[C@@H](N)CC2CCC2)C3)cc1 [Compound 479]	0.012	0.02		
CC(C)(C)[C@H](N)C(=O)N1CCn2c(nc(-c3ccc(F)cc3)c2Nc2ccc(Cl)cc2)C1 [Compound 463]	0.024	0.04		
CC(C)(N)C(=O)N1CCn2c(nc(-c3ccc(F)cc3)c2Nc2ccc(C#N)c(Cl)c2)C1(C)C [Compound 591]	0.046	0.06		
N[C@@H](Cc1ccc(F)c(F)c1)C(=O)N1CCn2c(nc(-c3ccc(F)cc3)c2Nc2ccc(F)cc2)C1 [Compound 475]	0.03	0.04		
CC1(C)Cn2c(nc(-c3ccc(F)cc3)c2Nc2ccc(F)cc2)CN1C(=O)CN [Compound 574]	0.111	0.08		
CC(C)(N)C(=O)N1CCn2c(nc(-c3ccc(F)cc3)c2Nc2ccc(Cl)cc2)C1(C)C [Compound 584]	0.021	0.02		
CC1(C)NC(=O)Cn2c1nc(-c1ccc(F)cc1)c2Nc1ccc(F)c(F)c1 [Compound 509]	0.134	0.13		
Cc1ccc(Nc2c(-c3ccc(F)c(Cl)c3)nc3n2CCN(C(=O)CN)C3)cc1 [Compound 519]	0.59	0.84		
CC1(C)NC(=O)Cn2c1nc(-c1ccc(F)cc1)c2Nc1ccc(F)cc1 [Compound 512]	0.165	0.19		
